From patent publication US20260317320A1, “C5AR1 ANTAGONISTS AND USES THEREOF” (Vanqua Bio, Inc., priority 2022, published 2026)
Like-named read-outs stand apart in the source and are kept apart here.

Assays:
[1] = target: T1, complement C5a receptor 1 (C5aR1) (Homo sapiens, UniProt P21730); experiment: β-arrestin recruitment via C5aR1 activation in live CHO-K1 cells (PathHunter), antagonist mode; assay type: cell-based
T1 construct: β-galactosidase fragment (PathHunter enzyme complementation); host or cells: CHO-K1 (PathHunter CHO-K1 C5aR1 β-arrestin cell line)
T1 sequence (P21730 1-350): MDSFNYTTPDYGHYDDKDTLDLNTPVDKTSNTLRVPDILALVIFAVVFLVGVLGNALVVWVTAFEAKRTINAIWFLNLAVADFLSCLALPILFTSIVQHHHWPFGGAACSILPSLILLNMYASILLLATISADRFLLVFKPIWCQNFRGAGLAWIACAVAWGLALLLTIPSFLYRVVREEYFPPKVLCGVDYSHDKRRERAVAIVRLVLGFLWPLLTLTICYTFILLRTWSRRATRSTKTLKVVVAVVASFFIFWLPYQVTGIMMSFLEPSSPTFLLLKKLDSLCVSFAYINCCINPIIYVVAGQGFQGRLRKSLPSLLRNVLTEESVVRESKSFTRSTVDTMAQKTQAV
Summary of the method: (§1)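 Live CHO-K1 cells expressing β-galactosidase fragments fused to β-arrestin and C5aR1; recruitment is read by fragment complementation. In agonist mode compounds are tested alone; in antagonist mode they compete against recombinant hC5a at EC90. IC50 reported in binned ranges.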

[2] = target: T1, complement C5a receptor 1 (C5aR1); experiment: β-arrestin recruitment via C5aR1 activation in live CHO-K1 cells (PathHunter), agonist mode; assay type: cell-based
Summary of the method: as §1

[3] = antagonist mode, recombinant hC5a (EC90) as competing natural agonist, live CHO-K1 cells, read-out: [Antagonist] B-arrestin2 recruitment: Average IC50

| SMILES | IC50 [1, 3] | [Agonist] B-arrestin2 recruitment: Average EC50 (nM) [2] | [Agonist] B-arrestin2 recruitment: Average EC50 (nM) ([2]; at 10 μM) | IC50 [1] |
| --- | --- | --- | --- | --- |
| Cc1cccc(F)c1N1CCC(c2nc3ccccc3n(Cc3nccnc3C(F)(F)F)c2=O)CC1 [compound 136, 3-(1-(2-Fluoro-6-methylphenyl)piperidin-4-yl)-1-((3-(trifluoromethyl)pyrazin-2-yl)methyl)quinoxalin-2(1H)-one] | > 100 µM | Non-Active |  |  |
| Cc1cccc(F)c1C1CCN(c2cc3nccnc3n(Cc3nccnc3C(F)(F)F)c2=O)CC1 [compound 89, 7-(4-(2-Fluoro-6-methylphenyl)piperidin-1-yl)-5-((3-(trifluoromethyl)pyrazin-2-yl)methyl) pyrido[2,3-b]pyrazin-6(5H)-one] | 5 to 100 µM | Non-Active |  |  |
| Cc1cnc2cc(N3CCN(c4c(C)cccc4F)CC3)c(=O)n(Cc3nccn(C(F)F)c3=O)c2n1 [161B, 5-((4-(Difluoromethyl)-3-oxo-3,4-dihydropyrazin-2-yl)methyl)-7-(4-(2-fluoro-6-methylphenyl)piperazin-1-yl)-3-methylpyrido[2,3-b]pyrazin-6(5H)-one] | 5 to 100 µM |  | Non-Active at 10 μM |  |
| Cc1cnc2cc([C@H]3CC[C@@H](c4c(C)cccc4F)CC3)c(=O)n(Cc3nccnc3C(F)F)c2n1 [148A, 5-((3-(Difluoromethyl)pyrazin-2-yl)methyl)-7-((1s,4s)-4-(2-fluoro-6-methylphenyl)cyclohexyl)-3-methylpyrido[2,3-b]pyrazin-6(5H)-one] | 0.5 to 5 µM | Non-Active |  |  |
| Cc1cnc2c(C)c(C3CCN(c4c(C)ccnc4F)CC3)c(=O)n(Cc3nccnc3C(F)(F)F)c2n1 [compound 63, 7-(1-(2-Fluoro-4-methylpyridin-3-yl)piperidin-4-yl)-3,8-dimethyl-5-((3-(trifluoromethyl)pyrazin-2-yl)methyl)pyrido[2,3-b]pyrazin-6(5H)-one] | 0.5 to 5 µM | Non-Active |  |  |
| Cc1cccc(F)c1N1CCC(c2cc3nccnc3n([C@@H]3CCc4nccnc43)c2=O)CC1 [160B, (R)-5-(6,7-Dihydro-5H-cyclopenta[b]pyrazin-5-yl)-7-(1-(2-fluoro-6-methylphenyl)piperidin-4-yl)pyrido[2,3-b]pyrazin-6(5H)-one] | 5 to 100 µM |  | Non-Active at 10 μM |  |
| Cc1cccc(F)c1N1CCC(c2cc3nccnc3n(Cc3cnc(C(F)(F)F)cn3)c2=O)CC1 [compound 27, 7-(1-(2-Fluoro-6-methylphenyl)piperidin-4-yl)-5-((5-(trifluoromethyl)pyrazin-2-yl)methyl)pyrido[2,3-b]pyrazin-6(5H)-one] |  | Non-Active |  | > 100 µM |
| Cc1cnc2cc([C@H]3CC[C@H](c4c(C)cccc4F)CC3)c(=O)n([C@@H]3CCC(F)(F)c4nccnc43)c2n1 [174B, 5-((R)-8,8-Difluoro-5,6,7,8-tetrahydroquinoxalin-5-yl)-7-((1r,4R)-4-(2-fluoro-6-methylphenyl)cyclohexyl)-3-methylpyrido[2,3-b]pyrazin-6(5H)-one] | 0.5 to 5 µM |  | Non-Active at 10 μM |  |
| Cc1cccc(F)c1N1CCC(c2nc3ccccc3n(Cc3ncccc3C(F)(F)F)c2=O)CC1 [compound 139, 3-(1-(2-Fluoro-6-methylphenyl)piperidin-4-yl)-1-((3-(trifluoromethyl)pyridin-2-yl)methyl)quinoxalin-2(1H)-one] | > 100 µM |  | Non-Active at 10 μM |  |
| Cc1cccc(F)c1[C@H]1CC[C@@H](c2cc3nccnc3n(Cc3ncccc3C(F)(F)F)c2=O)C1 [200C, 7-((1R,3S)-3-(2-Fluoro-6-methylphenyl)cyclopentyl)-5-((3-(trifluoromethyl)pyridin-2-yl)methyl)pyrido[2,3-b]pyrazin-6(5H)-one] | 0.5 to 5 µM |  | Non-Active at 10 μM |  |
| Cc1ccnc(F)c1N1CCC(c2cc3nccnc3n(Cc3nccnc3C)c2=O)CC1 [compound 128, 7-(1-(2-Fluoro-4-methylpyridin-3-yl)piperidin-4-yl)-5-((3-methylpyrazin-2-yl)methyl)pyrido[2,3-b]pyrazin-6(5H)-one] | 5 to 100 µM |  | Non-Active at 10 μM |  |
| Cc1cnc2cc([C@H]3CC[C@H](c4c(C)cccc4F)CC3)c(=O)n([C@H]3CCC(F)(F)c4nccnc43)c2n1 [174A, 5-((S)-8,8-Difluoro-5,6,7,8-tetrahydroquinoxalin-5-yl)-7-((1r,4S)-4-(2-fluoro-6-methylphenyl)cyclohexyl)-3-methylpyrido[2,3-b]pyrazin-6(5H)-one] | 5 to 100 µM |  | Non-Active at 10 μM |  |

Results, then the compound that gave them:

| IC50 [1, 3] | [Agonist] B-arrestin2 recruitment: Average EC50 (nM) [2] | [Agonist] B-arrestin2 recruitment: Average EC50 (nM) ([2]; at 10 μM) | IC50 [1] | SMILES |
| --- | --- | --- | --- | --- |
| 0.5 to 5 µM | Non-Active |  |  | Cc1cnc2c(cc(C3CCN(c4c(C)cccc4F)CC3)c(=O)n2Cc2ccccc2C(F)(F)F)n1 [compound 55, 7-(1-(2-Fluoro-6-methylphenyl)piperidin-4-yl)-2-methyl-5-(2-(trifluoromethyl)-benzyl)-pyrido[2,3-b]pyrazin-6(5H)-one] |
| < 0.5 µM |  | Non-Active at 10 μM |  | Cc1cnc2cc([C@H]3CC[C@H](c4c(C)cccc4F)CC3)c(=O)n(Cc3ncccc3OCC(F)(F)F)c2n1 [compound 213, 7-((1r,4r)-4-(2-Fluoro-6-methylphenyl)cyclohexyl)-3-methyl-5-((3-(2,2,2-trifluoroethoxy)pyridin-2-yl)methyl)pyrido[2,3-b]pyrazin-6(5H)-one] |
| < 0.5 µM | Non-Active |  |  | Cc1c(C2CCN(c3ccccc3C(F)(F)F)CC2)c(=O)n(Cc2ccccc2F)c2nccnc12 [compound 7, 5-(2-Fluorobenzyl)-8-methyl-7-(1-(2-(trifluoromethyl)phenyl)piperidin-4-yl)pyrido[2,3-b]pyrazin-6(5H)-one] |
| < 0.5 µM |  | Non-Active at 10 μM |  | Cc1cnc2cc(C3CCN(c4nnccc4C(F)(F)F)CC3)c(=O)n(Cc3ncccc3C(F)(F)F)c2n1 [compound 165, 3-Methyl-7-(1-(4-(trifluoromethyl)pyridazin-3-yl)piperidin-4-yl)-5-((3-(trifluoromethyl)pyridin-2-yl)methyl)pyrido[2,3-b]pyrazin-6(5H)-one] |
| < 0.5 µM | Non-Active |  |  | Cc1ccc2cc([C@H]3CC[C@H](c4c(C)cccc4F)CC3)c(=O)n(Cc3ncccc3OC(F)F)c2n1 [compound 195, 1-((3-(Difluoromethoxy)pyridin-2-yl)methyl)-3-((1r,4r)-4-(2-fluoro-6-methylphenyl)cyclohexyl)-7-methyl-1,8-naphthyridin-2(1H)-one] |
| < 0.5 µM | Non-Active |  |  | Cc1cnc2cc([C@H]3CC[C@H](c4c(C)ccnc4F)CC3)c(=O)n(Cc3ncccc3C(F)(F)F)c2n1 [147B, 7-((1r,4r)-4-(2-Fluoro-4-methylpyridin-3-yl)cyclohexyl)-3-methyl-5-((3-(trifluoromethyl)pyridin-2-yl)methyl)pyrido[2,3-b]pyrazin-6(5H)-one] |
| < 0.5 µM |  | Non-Active at 10 μM |  | Cc1cnc2cc(C3CCN(c4c(C)cccc4F)CC3)c(=O)n(Cc3nccnc3OC(F)F)c2n1 [compound 167, 5-((3-(Difluoromethoxy)pyrazin-2-yl)methyl)-7-(1-(2-fluoro-6-methylphenyl)piperidin-4-yl)-3-methylpyrido[2,3-b]pyrazin-6(5H)-one] |
| < 0.5 µM |  | Non-Active at 10 μM |  | Cc1cccc(F)c1[C@H]1CC[C@H](c2cc3nc(CC(F)F)cnc3n(Cc3ncccc3C(F)(F)F)c2=O)CC1 [compound 226, 2-(2,2-Difluoroethyl)-7-((1r,4r)-4-(2-fluoro-6-methylphenyl)cyclohexyl)-5-((3-(trifluoromethyl)pyridin-2-yl)methyl)pyrido[2,3-b]pyrazin-6(5H)-one] |
| < 0.5 µM |  | Non-Active at 10 μM |  | Cc1cnc2cc([C@H]3CC[C@H](c4c(C)cccc4F)C3)c(=O)n(Cc3ncccc3C(F)F)c2n1 [187B, 5-((3-(Difluoromethyl)pyridin-2-yl)methyl)-7-((1S,3S)-3-(2-fluoro-6-methylphenyl)cyclopentyl)-3-methylpyrido[2,3-b]pyrazin-6(5H)-one] |
| < 0.5 µM |  | Non-Active at 10 μM |  | Cc1cnc2cc([C@H]3CC[C@H](c4c(C)cccc4F)CC3)c(=O)n(Cc3ncccc3C3CC3)c2n1 [compound 220, 5-((3-Cyclopropylpyridin-2-yl)methyl)-7-((1r,4r)-4-(2-fluoro-6-methylphenyl)cyclohexyl)-3-methylpyrido[2,3-b]pyrazin-6(5H)-one] |
| < 0.5 µM | Non-Active |  |  | Cc1ccc2cc([C@H]3CC[C@H](c4c(C)cccc4F)CC3)c(=O)n(Cc3ncccc3CC(F)F)c2n1 [compound 268, 1-{[3-(2,2-Difluoroethyl)-2-pyridyl]methyl}-7-methyl-3-[(1r,4r)-4-(2-fluoro-6-tolyl)cyclohexyl]-1,8-diaza-2(1H)-naphthalenone] |
